{
  "source": "paper PMC5121622",
  "about": "“Cytotoxic and genotoxic potential of food-borne nitriles in a liver in vitro model” (Scientific Reports, 2016)",
  "key": {"[1]": {"test_system": "human liver cancer (HepG2) cells", "experiment": "WST-1 cytotoxicity assay in HepG2 cells", "assay_type": "cell-based", "details": "for change in cell viability: HepG2, 72 h, 0.3 to 30 mM; for IC50: HepG2, 72 h treatment, WST-1 assay", "method": "(§1) HepG2 cells were purchased from the German Collection of Microorganisms and Cell Cultures (DSMZ, Braunschweig, Germany). HepG2 cells which constitutively express human CYP2E1 (E47 cells, HepG2-CYP2E1) and control HepG2 cells transfected with empty vector (C34 cells, HepG2- vector), originally established by Wu and Cederbaum[27], were kindly provided by C. Hellerbrand (University Medical Center Regensburg, Germany). The cells were cultured in low glucose Dulbecco’s modified eagle medium supplemented with 15% fetal calf serum and 1% Pen/Strep in an atmosphere with 5% CO2 at 37 °C and 95% air humidity.\n(§2) Cytotoxicity was determined with the WST-1 assay (Roche Diagnostics Deutschland GmbH, Mannheim, Germany). The assay is based on the ability of viable cells to cleave the tetrazolium salt WST-1 to formazan by their mitochondrial succinate-tetrazolium-reductase system. Cells were cultured at an initial density of 5000 cells/well in 96-well plates for 48 h. Then, cells were treated with the nitriles (0.3 to 30 mM, solved in distilled water) for 72 h. As positive control, 0.01% Triton X-100 was used. Following compound exposure and incubation, the WST 1 assay was performed according to the manufacturer’s instructions.\nThe median growth inhibitory concentration (IC50) for compound cytotoxicity was calculated using Graphpad Prism 5.0 software (La Jolla, CA). After logarithmic transformation, IC50 values were calculated with equation 1: […]"}, "[2]": {"test_system": "primary murine hepatocytes", "experiment": "WST-1 cell viability in primary murine hepatocytes", "assay_type": "cell-based, mouse", "details": "72 h", "method": "Murine hepatocytes were obtained from 8–16 week-old, male C57BL6 mice (Charles River Laboratory, Sulzfeld, Germany) as described elsewhere. The institutional and national guidelines for the care and use of animals were followed, and all experimental procedures were approved by the institutional Animal Care and Use Committee at the University of Freiburg according to § 8.I of the Animal Welfare Act. 2–2.2 × 10^5 cells were plated in 24 well plates. The cells were left undisturbed for 4 h in a 5% CO2 atmosphere at 37 °C and then the medium was changed to serum free Williams’ Medium E supplemented with 100 nM dexamethasone. Within 24 h the cells were exposed to the test compounds and controls for 72 h.\nas §2"}, "HepG2 cells [3]": {"test_system": "HepG2 cells", "set-up": "method as in Lamy et al. (2009)", "details": "HepG2, Comet assay and micronucleus test; ref Lamy et al. (2009); cited from earlier work"}, "HepG2-CYP2E1 cells [4]": {"test_system": "HepG2-CYP2E1 cells", "experiment": "WST-1 cytotoxicity assay in CYP2E1-overexpressing HepG2 cells versus vector control cells", "assay_type": "cell-based, human", "details": "10 mM, 72 h", "method": "as §1, §2"}, "HepG2 cells [5]": {"test_system": "HepG2 cells", "experiment": "Comet assay (DNA strand breaks) in HepG2 cells", "assay_type": "cell-based, human", "details": "HepG2, 24 h; for concentration with significant increase in DNA strand breaks: Olive Tail Moment and percent tail DNA", "method": "(§3) The single cell gel electrophoresis assay also known as Comet assay was carried out as described earlier with slight modifications. The percent tail DNA and the Olive Tail Moment (OTM) were calculated as indicators of DNA damage. For each sample, 102 systematically screened cells were evaluated. Briefly, HepG2 cells were seeded onto well plates. After 48 h of growth, the cells were exposed to the nitriles or ITC for 24 h. As positive control 50 μM B(α)P and as solvent control distilled water or 0.1% DMSO was used. To analyze the repair capacity of HepG2 cells, the test substances were removed after 24 h and incubated for another 24 h before the assay was terminated."}, "Hepa1c1c7 cells": {"test_system": "Hepa1c1c7 cells", "details": "Hepa1c1c7, 5 mM, 72 h; cited from earlier work"}, "quinone reductase": {"test_system": "quinone reductase", "details": "cited from earlier work"}, "[6]": {"test_system": "activated human T lymphocytes", "set-up": "method as in PMID 27161402", "details": "cited from earlier work"}, "UM-2BB cells": {"test_system": "UM-2BB cells", "set-up": "method as in Lui et al. (2003)", "details": "MTT-assay, ref Lui et al. (2003); cited from earlier work"}, "HepG2-CYP2E1 cells [7]": {"test_system": "HepG2-CYP2E1 cells", "experiment": "Comet assay in CYP2E1 transfected HepG2 and vector cells", "assay_type": "cell-based, human", "details": "24 h", "method": "as §1, §3"}, "[8]": {"details": "Homo sapiens, read-out: IC50 (median growth inhibitory concentration)"}},
  "note": "Entries after “also recorded” stand apart in the source; their conditions may differ. Where two headings read alike, the source gives them in different places.",
  "data": [
    {"smiles": "C=CCCC#N", "note": "[3-but-CN, 4-pentenenitrile]", "values": [
      {"measurement": "change in cell viability", "setting": "[1]", "result": "did not result in significant changes in cell viability"},
      {"measurement": "viability of hepatocytes", "setting": "[2]", "result": "significantly decreased the viability of hepatocytes in a concentration-dependent manner"}
    ]},
    {"smiles": "CSCCCN=C=S", "note": "[3-MTP-ITC, 3-(methylthio)propyl ITC]", "values": [
      {"measurement": "concentration inducing DNA damage and mutagenicity", "setting": "HepG2 cells [3]", "result": "exceeding 1 μM"}
    ]},
    {"smiles": "N#CCCc1ccccc1", "note": "[2-phenylethyl-CN, 3-phenylpropanenitrile]", "values": [
      {"measurement": "IC50", "setting": "[1]; [8]", "result": 18.2, "unit": "mM"}
    ]},
    {"smiles": "CSCCCCC#N", "note": "[4-MTB-CN, 5-(methylthio)pentylnitrile]", "values": [
      {"measurement": "IC50", "setting": "[1]; [8]", "result": 17.9, "unit": "mM"},
      {"measurement": "difference in cytotoxicity between CYP2E1-overexpressing and vector control cells", "setting": "HepG2-CYP2E1 cells [4]", "result": "significant difference in cytotoxicity"},
      {"measurement": "concentration at which a viability loss was detected", "setting": "[2]", "result": 30000, "unit": "µM"},
      {"measurement": "DNA strand breaks, concentration dependence", "setting": "HepG2 cells [5]", "result": "concentration-dependent increase in DNA strand breaks"},
      {"measurement": "concentration with significant increase in DNA strand breaks", "setting": "HepG2 cells [5]", "result": "≥ 3", "unit": "µM"}
    ]},
    {"smiles": "C=CCC#N", "note": "[allyl-CN, 3-butenenitrile]", "values": [
      {"measurement": "change in cell viability", "setting": "[1]", "result": "did not result in significant changes in cell viability"},
      {"measurement": "viability of hepatocytes", "setting": "[2]", "result": "significantly decreased the viability of hepatocytes in a concentration-dependent manner"}
    ]},
    {"smiles": "C=CC(O)CC#N", "note": "(centres unmarked) [crambene, 3-hydroxy-4-pentenenitrile]", "values": [
      {"measurement": "cell proliferation diminished by", "setting": "Hepa1c1c7 cells", "result": 76, "unit": "%"},
      {"measurement": "cell viability reduced by", "setting": "Hepa1c1c7 cells", "result": 12, "unit": "%"}
    ]},
    {"smiles": "C[S+]([O-])CCCCN=C=S", "note": "(centres unmarked) [Sulforaphane, 4-(methylsulfinyl)butyl ITC]", "values": [
      {"measurement": "concentration inducing quinone reductase", "setting": "quinone reductase", "result": 2.5, "unit": "µM"},
      {"measurement": "maximum induction of quinone reductase", "setting": "quinone reductase", "result": 3.1, "unit": "fold"}
    ]},
    {"smiles": "CSCCCCCC#N", "note": "[5-MTP-CN, 6-(methylthio)hexylnitrile]", "values": [
      {"measurement": "IC50", "setting": "[1]; [8]", "result": 12.2, "unit": "mM"}
    ]},
    {"smiles": "S=C=NCc1ccccc1", "note": "[benzyl-ITC, benzyl ITC, reference compound]", "values": [
      {"measurement": "IC50", "setting": "[1]; read-out: IC50", "result": 0.0158, "unit": "mM"},
      {"measurement": "cytotoxic potency relative to the nitriles", "setting": "[1]; HepG2, ITC versus corresponding nitrile", "result": 1000, "unit": "fold"},
      {"measurement": "concentration with strong interference with pro-inflammatory response including PGE2 release", "setting": "[6]; activated human T lymphocytes", "result": "≥ 3", "unit": "µM"},
      {"measurement": "IC50", "setting": "UM-2BB cells", "result": 0.017, "unit": "mM"}
    ]},
    {"smiles": "C[S+]([O-])CCCCC#N", "note": "(centres unmarked) [sulforaphane nitrile, 5-(methylsulfinyl)pentylnitrile]", "values": [
      {"measurement": "concentration reaching a similar induction of quinone reductase as sulforaphane", "setting": "quinone reductase", "result": 2, "unit": "mM"}
    ]},
    {"smiles": "N#CCc1ccccc1", "note": "[benzyl-CN, phenylacetonitrile]", "values": [
      {"measurement": "IC50", "setting": "[1]; [8]", "result": 19.9, "unit": "mM"},
      {"measurement": "viability of hepatocytes", "setting": "[2]", "result": "significantly decreased the viability of hepatocytes in a concentration-dependent manner"},
      {"measurement": "DNA strand breaks, concentration dependence", "setting": "HepG2 cells [5]", "result": "concentration-dependent increase in DNA strand breaks"},
      {"measurement": "DNA damage compared with benzyl ITC", "setting": "HepG2 cells [5]; 3 μM", "result": "comparable with the effect of benzyl ITC at the same concentration; also recorded: comparable with the effect of benzyl-ITC in the same concentration"},
      {"measurement": "concentration with significant increase in DNA strand breaks", "setting": "HepG2 cells [5]", "result": "≥ 3", "unit": "µM"},
      {"measurement": "concentration with significant increment of DNA strand breaks by CYP2E1-overexpression as compared to vector control cells", "setting": "HepG2-CYP2E1 cells [7]", "result": "≥ 3", "unit": "µM"},
      {"measurement": "influence on PGE2 release", "setting": "[6]; 1 mM", "result": "did not influence PGE2 release"}
    ]},
    {"smiles": "C=CCCCC#N", "note": "[4-pent-CN, 5-hexenenitrile]", "values": [
      {"measurement": "change in cell viability", "setting": "[1]", "result": "did not result in significant changes in cell viability"}
    ]},
    {"smiles": "CSCCCCCCC#N", "note": "[6-MTH-CN, 7-(methylthio)heptylnitrile]", "values": [
      {"measurement": "IC50", "setting": "[1]; [8]", "result": 8.15, "unit": "mM"}
    ]},
    {"smiles": "CSCCCCCN=C=S", "note": "[5-MTP-ITC, 5-(methylthio)pentyl ITC]", "values": [
      {"measurement": "concentration inducing DNA damage and mutagenicity", "setting": "HepG2 cells [3]", "result": "exceeding 1 μM"}
    ]},
    {"smiles": "CSCCCC#N", "note": "[3-MTP-CN, 4-(methylthio)butylnitrile]", "values": [
      {"measurement": "IC50", "setting": "[1]; [8]", "result": 19.5, "unit": "mM"}
    ]}
  ]
}
